From patent US7956053B2, “Inhibitors of tyrosine kinases” (Novartis AG, priority 2002, dated 2011) come the findings set out here.

Format in all cases: biochemical
The target in one experiment is T1, c-Abl (Homo sapiens, UniProt P00519).
T1 construct: The His-tagged kinase domain of c-Abl is cloned and expressed in the baculovirus/Sf9 system; His; made in house; host or cells: baculovirus/Sf9
T1 sequence (P00519 242-493 limits assumed): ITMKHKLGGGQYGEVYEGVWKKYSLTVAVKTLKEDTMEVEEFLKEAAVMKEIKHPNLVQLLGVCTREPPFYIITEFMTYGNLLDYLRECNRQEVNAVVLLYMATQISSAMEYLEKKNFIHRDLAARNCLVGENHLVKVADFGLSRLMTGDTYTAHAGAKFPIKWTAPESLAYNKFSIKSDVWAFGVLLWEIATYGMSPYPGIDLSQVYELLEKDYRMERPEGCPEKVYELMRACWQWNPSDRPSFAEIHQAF
Kind of experiment: Test for activity against c-Abl protein tyrosine kinase (filter binding assay). In a few lines: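 His-tagged c-Abl kinase domain expressed in baculovirus/Sf9 cells; 50 ng enzyme with 30 μg/mL poly-AEKY, 5 μM ATP plus [γ-33P]-ATP, pH 7.5 Tris, 1% DMSO. Stopped with EDTA, captured on PVDF membrane and counted by scintillation. Values are % inhibition at 10 μM.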

Another experiment deals with KDR (Homo sapiens, UniProt P35968). Kind of experiment: Enzymatic KDR in vitro inhibition. In outline:
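KDR kinase inhibition was measured in vitro with a radiometric filter-binding method. The kinase was incubated for 10 minutes at room temperature with poly(Glu,Tyr) 4:1 and 8 μM [^33P]-ATP (0.2 μCi) in 20 mM Tris.HCl pH 7.5 buffer with MnCl2, MgCl2, vanadate, PEG 20000, dithiothreitol and 1% DMSO. EDTA stopped the reaction, aliquots were spotted onto PVDF membranes, and after acid and ethanol washes radioactivity was counted. Results are given as % inhibition at 10 μM.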

The target in another experiment is T2, Flt3 (Homo sapiens, UniProt P36888).
T2 sequence (P36888 27-993): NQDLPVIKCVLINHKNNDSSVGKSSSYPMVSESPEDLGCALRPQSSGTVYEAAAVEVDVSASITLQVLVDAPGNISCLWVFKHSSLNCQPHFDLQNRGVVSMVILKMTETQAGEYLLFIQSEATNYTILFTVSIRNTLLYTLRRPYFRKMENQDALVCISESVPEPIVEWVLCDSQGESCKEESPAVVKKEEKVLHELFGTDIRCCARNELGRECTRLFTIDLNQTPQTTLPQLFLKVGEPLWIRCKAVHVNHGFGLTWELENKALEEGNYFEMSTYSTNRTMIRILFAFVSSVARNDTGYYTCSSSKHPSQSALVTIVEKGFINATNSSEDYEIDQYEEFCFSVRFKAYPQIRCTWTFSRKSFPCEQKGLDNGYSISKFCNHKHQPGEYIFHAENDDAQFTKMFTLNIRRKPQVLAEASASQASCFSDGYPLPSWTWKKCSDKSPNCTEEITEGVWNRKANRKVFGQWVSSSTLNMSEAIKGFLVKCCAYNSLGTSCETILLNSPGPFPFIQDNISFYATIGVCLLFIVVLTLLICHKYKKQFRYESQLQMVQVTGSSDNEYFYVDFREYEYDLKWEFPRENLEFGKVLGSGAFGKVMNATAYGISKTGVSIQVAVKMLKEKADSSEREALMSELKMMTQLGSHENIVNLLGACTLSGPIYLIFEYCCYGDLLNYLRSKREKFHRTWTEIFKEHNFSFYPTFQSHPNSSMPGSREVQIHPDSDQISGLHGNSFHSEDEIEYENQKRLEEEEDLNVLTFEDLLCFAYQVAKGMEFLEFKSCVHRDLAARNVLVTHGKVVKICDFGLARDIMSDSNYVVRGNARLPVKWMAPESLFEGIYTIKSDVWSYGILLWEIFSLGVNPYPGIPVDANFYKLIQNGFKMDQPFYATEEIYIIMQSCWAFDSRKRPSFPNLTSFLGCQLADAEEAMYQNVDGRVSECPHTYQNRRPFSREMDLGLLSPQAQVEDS
Kind of experiment: Enzymatic Flt3 in vitro inhibition. To be noted: % inhibition at 10 μM. As for the experimental part: Enzymatic (c-Abl, KDR, Flt3) in vitro inhibition data are presented as % inhibition at 10 μM. The measurements are made as described above in the general description.

Sequence of KDR (P35968 20-1356): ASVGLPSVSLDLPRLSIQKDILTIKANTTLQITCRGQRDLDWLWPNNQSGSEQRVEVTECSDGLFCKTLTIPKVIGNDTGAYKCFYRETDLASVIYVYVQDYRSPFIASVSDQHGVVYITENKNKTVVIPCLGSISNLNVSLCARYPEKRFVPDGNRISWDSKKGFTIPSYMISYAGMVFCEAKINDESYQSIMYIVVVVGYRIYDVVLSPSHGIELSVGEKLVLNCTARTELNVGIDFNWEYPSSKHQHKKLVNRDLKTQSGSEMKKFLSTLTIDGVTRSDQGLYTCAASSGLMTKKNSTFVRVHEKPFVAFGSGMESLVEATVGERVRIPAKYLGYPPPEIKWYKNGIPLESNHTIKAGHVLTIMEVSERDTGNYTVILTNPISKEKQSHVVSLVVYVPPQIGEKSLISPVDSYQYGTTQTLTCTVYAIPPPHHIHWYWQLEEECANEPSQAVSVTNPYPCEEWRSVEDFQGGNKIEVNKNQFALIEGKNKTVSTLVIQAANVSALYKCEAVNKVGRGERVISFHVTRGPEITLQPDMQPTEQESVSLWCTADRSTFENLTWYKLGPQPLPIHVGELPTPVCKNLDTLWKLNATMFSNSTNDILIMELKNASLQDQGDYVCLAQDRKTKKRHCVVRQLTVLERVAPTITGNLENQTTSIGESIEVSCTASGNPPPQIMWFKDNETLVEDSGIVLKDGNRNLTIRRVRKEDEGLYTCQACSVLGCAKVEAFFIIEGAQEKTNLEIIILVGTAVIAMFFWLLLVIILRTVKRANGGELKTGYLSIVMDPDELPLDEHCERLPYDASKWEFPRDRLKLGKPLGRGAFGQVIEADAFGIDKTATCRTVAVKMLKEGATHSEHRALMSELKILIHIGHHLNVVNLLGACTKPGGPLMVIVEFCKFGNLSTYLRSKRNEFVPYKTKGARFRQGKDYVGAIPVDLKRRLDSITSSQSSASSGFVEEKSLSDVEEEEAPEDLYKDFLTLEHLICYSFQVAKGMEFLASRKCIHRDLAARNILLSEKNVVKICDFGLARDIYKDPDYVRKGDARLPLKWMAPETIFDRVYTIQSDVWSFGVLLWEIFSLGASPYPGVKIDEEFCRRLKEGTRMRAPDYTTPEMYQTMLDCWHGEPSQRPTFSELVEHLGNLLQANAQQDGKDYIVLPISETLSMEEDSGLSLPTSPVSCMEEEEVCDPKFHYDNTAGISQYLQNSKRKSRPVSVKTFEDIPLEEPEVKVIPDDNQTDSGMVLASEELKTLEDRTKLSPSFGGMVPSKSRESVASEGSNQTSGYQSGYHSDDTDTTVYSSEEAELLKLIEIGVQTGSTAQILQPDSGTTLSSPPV

The term inhibition denotes the drop in the measured response relative to a control, in per cent. High values mean a response far below the control, low ones a response near the control. Turning to `Cc1ccc(C(=O)N2CCC(O)(c3ccccc3)CC2)cc1Nc1nccc(-c2cccnc2)n1` [Example 59, 1-[4-Methyl-3-[[4-(3-pyridinyl)-2-pyrimidinyl]amino]benzoyl]-4-phenyl-4-piperidinol], the values for the inhibition at 10 µM at c-Abl and on KDR were 75% and 83%, respectively.

As for `Cc1ccc(C(=O)Nc2cccc(C(=O)c3ccccc3)c2)cc1Nc1nccc(-c2cccnc2)n1` [Example 60, N-(3-Benzoylphenyl)-4-methyl-3-[[4-(3-pyridinyl)-2-pyrimidinyl]amino]benzamide], the results for the inhibition at 10 µM at c-Abl and against KDR were 79% and 36%, respectively.

As to `Cc1ccc(C(=O)NCC(=O)OC(C)(C)C)cc1Nc1nccc(-c2cccnc2)n1` [Example 61, N-[4-Methyl-3-[[4-(3-pyridinyl)-2-pyrimidinyl]amino]benzoyl]-glycine 1,1-dimethylethyl ester], the inhibition at 10 µM at c-Abl is 95%; against KDR it was 65%.

As to `CCOC(=O)Cc1ccc(NC(=O)c2ccc(C)c(Nc3nccc(-c4cccnc4)n3)c2)cc1` [Example 62, 4-[[4-Methyl-3-[[4-(3-pyridinyl)-2-pyrimidinyl]amino]benzoyl]amino]benzene-acetic acid ethyl ester], the inhibition at 10 µM at c-Abl was 59%; on KDR, 44%.

For `Cc1ccc(C(=O)NCCCN(C)c2ccccc2)cc1Nc1nccc(-c2cccnc2)n1` [Example 63, 4-Methyl-N-[3-(methylphenylamino)propyl]-3-[[4-(3-pyridinyl)-2-pyrimidinyl]-amino]benzamide], the inhibition at 10 µM amounted to 74% at c-Abl and 82% at KDR.

Regarding `CCOC(=O)C1CCN(Cc2cccc(NC(=O)c3ccc(C)c(Nc4nccc(-c5cccnc5)n4)c3)c2)CC1` [Example 64, 1-[[3-[[4-Methyl-3-[[4-(3-pyridinyl)-2-pyrimidinyl]amino]benzoyl]amino]phenyl]-methyl]-4-piperidinecarboxylic acid ethyl ester], the inhibition at 10 µM on c-Abl came to 56%; against KDR it was 59%.

As for `CCOC(=O)C(NC(=O)c1ccc(C)c(Nc2nccc(-c3cccnc3)n2)c1)C(=O)OCC` [Example 65, [[4-Methyl-3-[[4-(3-pyridinyl)-2-pyrimidinyl]amino]benzoyl]amino]propanedioic acid diethyl ester], the values for the inhibition at 10 µM at c-Abl and against KDR were 96% and 60%, respectively.

On to `Cc1ccc(C(=O)NCCN(C(C)C)C(C)C)cc1Nc1nccc(-c2cccnc2)n1` [Example 66, N-[2-[bis(1-Methylethyl)amino]ethyl]-4-methyl-3-[[4-(3-pyridinyl)-2-pyrimidinyl]-amino]benzamide], for which the values for the inhibition at 10 µM at c-Abl and on KDR were 67% and 23%, respectively.

With `CCN(CC)c1cccc(NC(=O)c2ccc(C)c(Nc3nccc(-c4cccnc4)n3)c2)c1` [Example 67, N-[3-(Diethylamino)phenyl]-4-methyl-3-[[4-(3-pyridinyl)-2-Pyrimidinyl]amino]benzamide], the values for the inhibition at 10 µM on c-Abl and against KDR were 98% and 88%, respectively. Besides, at Flt3, the “Flt3 %@10 μM” value is 41%.

Take `Cc1ccc(C(=O)NCc2cc(C(C)(C)O)cc(C(F)(F)F)c2)cc1Nc1nccc(-c2cccnc2)n1` [Example 68, 4-Methyl-3-[[4-(3-pyridinyl)-2-pyrimidinyl]amino]-N-[[3-[(1-hydroxy-1-methyl-ethyl)]-5-(1,1,1-trifluoromethyl)phenyl]methyl]benzamide]: the inhibition at 10 µM on c-Abl came to 99%; against KDR, 96%.
